Data taken from patent US20240083857A1, “2-Methyl-Quinazolines” (Bayer Pharma Aktiengesellschaft, priority 2017, published 2024).
Where two headings read alike, the source gives them in different places.

Columns and labels:
[1] = target: human SOS1 (loading of human K-Ras^G12C-GDP with fluorescent GTP-analog) (Homo sapiens, UniProt Q07889); assay: Biochemical assay 3: K-Ras^G12C activation assay by hSOS1 (HTRF); conditions: E-notation values; unit inferred; read-out: Assay 3 (KRAS-Activation) IC50
[2] = target: Epidermal Growth Factor Receptor (EGFR) (Homo sapiens (Human), UniProt P00533); assay: EGFR kinase assay (TR-FRET); format: biochemical; conditions: read-out: EGFR-assay IC50
Chain of Epidermal Growth Factor Receptor (EGFR) (P00533 25-1210): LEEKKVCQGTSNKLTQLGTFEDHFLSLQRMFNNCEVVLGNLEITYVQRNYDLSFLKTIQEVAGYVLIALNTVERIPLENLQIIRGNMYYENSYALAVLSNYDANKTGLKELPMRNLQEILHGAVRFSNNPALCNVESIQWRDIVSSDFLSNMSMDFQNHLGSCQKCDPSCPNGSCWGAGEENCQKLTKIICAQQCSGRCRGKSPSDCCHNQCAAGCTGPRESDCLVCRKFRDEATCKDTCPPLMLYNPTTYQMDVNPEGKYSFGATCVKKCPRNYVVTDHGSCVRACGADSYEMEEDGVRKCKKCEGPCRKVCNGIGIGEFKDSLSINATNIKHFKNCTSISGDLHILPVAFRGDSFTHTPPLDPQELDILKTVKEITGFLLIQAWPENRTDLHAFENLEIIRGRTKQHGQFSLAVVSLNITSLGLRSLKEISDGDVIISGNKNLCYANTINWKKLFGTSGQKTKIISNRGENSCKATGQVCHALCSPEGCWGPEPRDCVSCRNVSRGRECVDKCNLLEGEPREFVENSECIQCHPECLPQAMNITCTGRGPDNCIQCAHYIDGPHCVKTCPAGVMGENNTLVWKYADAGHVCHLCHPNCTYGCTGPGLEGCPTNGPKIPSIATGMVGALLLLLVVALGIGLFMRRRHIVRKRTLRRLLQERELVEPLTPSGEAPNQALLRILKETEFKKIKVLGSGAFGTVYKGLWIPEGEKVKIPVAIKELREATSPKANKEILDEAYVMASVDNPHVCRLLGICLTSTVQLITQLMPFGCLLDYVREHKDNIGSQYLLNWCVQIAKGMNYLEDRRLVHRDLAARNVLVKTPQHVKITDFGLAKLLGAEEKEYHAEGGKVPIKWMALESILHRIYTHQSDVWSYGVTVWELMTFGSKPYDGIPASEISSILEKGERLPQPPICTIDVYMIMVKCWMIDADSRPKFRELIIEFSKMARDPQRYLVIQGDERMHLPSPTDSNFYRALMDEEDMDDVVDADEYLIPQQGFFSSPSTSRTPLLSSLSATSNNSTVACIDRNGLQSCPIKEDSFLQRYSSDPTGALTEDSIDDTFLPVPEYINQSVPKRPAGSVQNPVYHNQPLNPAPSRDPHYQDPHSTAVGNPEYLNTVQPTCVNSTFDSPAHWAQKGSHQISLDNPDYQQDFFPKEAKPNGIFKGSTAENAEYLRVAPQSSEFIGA
Outline: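 Read-out is the 665/620 nm HTRF ratio, from a Tb-cryptate anti-phosphotyrosine antibody and streptavidin-XL665 bound to phosphorylated biotin-peptide substrate. The enzyme, A431-derived EGFR (~3 U/ml), was given 15 min compound pre-binding at 22° C in Hepes pH 7.0 with Mg2+/Mn2+ before reaction.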

[3] = E-notation values, unit inferred

COc1cc2nc(C)nc(NC(C)c3ccc(-c4ccccc4CNC4CC4)s3)c2cc1OC (stereo not drawn) [Example 370, N-[1-(5-{2-[(cyclopropylamino)methyl]phenyl}thiophen-2-yl)ethyl]-6,7-dimethoxy-2-methylquinazolin-4-amine] gave an IC50 [1] of 0.363 µM and an IC50 ([2]; in μM) of over 20 µM.

COC(=O)c1ccc2nc(C)nc(N[C@H](C)c3cccc(Cl)c3)c2c1 [Example 371, methyl 4-{[(1R)-1-(3-chlorophenyl)ethyl]amino}-2-methylquinazoline-6-carboxylate] was tested, and the IC50 [1] was 3.35 µM and the IC50 ([2]; in μM) was over 20 µM.

In the case of Cc1nc(N[C@H](C)c2cccc(Cl)c2)c2cc(CO)ccc2n1 [Example 373, (4-{[(1R)-1-(3-chlorophenyl)ethyl]amino}-2-methylquinazolin-6-yl)methanol], the IC50 [1] is reported as 9.21 µM and the IC50 ([2]; in μM) is reported as over 20 µM.

In the case of COc1cc2nc(C)nc(NC(C)c3ccc(-c4ccccc4C(O)c4ccccc4)s3)c2cc1OC (stereo not drawn) [Example 374, [2-(5-{1-[(6,7-dimethoxy-2-methylquinazolin-4-yl)amino]ethyl}thiophen-2-yl)-phenyl](phenyl)methanol], the IC50 [1] is reported as 6.5 µM and the IC50 ([2]; in μM) is reported as over 20 µM.

In the case of COc1cc2nc(C)nc(NC(C)c3ccc(-c4ccccc4C(O)Cc4ccccc4)s3)c2cc1OC (stereo not drawn) [Example 376, 1-[2-(5-{1-[(6,7-dimethoxy-2-methylquinazolin-4-yl)amino]ethyl}thiophen-2-yl)phenyl]-2-phenylethanol], the IC50 [1] is reported as 17.9 µM and the IC50 ([2]; in μM) is reported as over 20 µM.

CCCCC(O)c1ccccc1-c1ccc(C(C)Nc2nc(C)nc3cc(OC)c(OC)cc23)s1 (stereo not drawn) [Example 377, 1-[2-(5-{1-[(6,7-dimethoxy-2-methylquinazolin-4-yl)amino]ethyl}thiophen-2-yl)phenyl]pentan-1-ol] was tested, and the IC50 [1] was 15.1 µM and the IC50 ([2]; in μM) was over 20 µM.

C#CC(O)c1ccccc1-c1ccc(C(C)Nc2nc(C)nc3cc(OC)c(OC)cc23)s1 (stereo not drawn) [Example 378, 1-[2-(5-{1-[(6,7-dimethoxy-2-methylquinazolin-4-yl)amino]ethyl}thiophen-2-yl)phenyl]prop-2-yn-1-ol] showed an IC50 [1] of 1.45 µM and an IC50 ([2]; in μM) of over 20 µM.

COc1cc2nc(C)nc(NC(C)c3ccc(-c4ccccc4C(O)C(C)C)s3)c2cc1OC (stereo not drawn) [Example 379, 1-[2-(5-{1-[(6,7-dimethoxy-2-methylquinazolin-4-yl)amino]ethyl}thiophen-2-yl)phenyl]-2-methylpropan-1-ol] showed an IC50 [1] of 1.63 µM and an IC50 ([2]; in μM) of over 20 µM.

Work on COc1cc2nc(C)nc(NC(C)c3ccc(-c4ccccc4C(O)C(F)(F)F)s3)c2cc1OC (stereo not drawn) [Example 380, 1-[2-(5-{1-[(6,7-dimethoxy-2-methylquinazolin-4-yl)amino]ethyl}thiophen-2-yl)phenyl]-2,2,2-trifluoroethanol] yielded an IC50 [1] of 2.74 µM and an IC50 ([2]; in μM) of over 20 µM.

With COc1cc2nc(C)nc(NC(C)c3cc(C)c(-c4cnc5n4CCC5)s3)c2cc1OC (stereo not drawn) [Example 381, N-{1-[5-(6,7-dihydro-5H-pyrrolo[1,2-a]imidazol-3-yl)-4-methylthiophen-2-yl]ethyl}-6,7-dimethoxy-2-methylquinazolin-4-amine] the IC50 [1] was 2.33 µM and the IC50 ([2]; in μM) was over 20 µM.

COc1cc2nc(C)nc(NC(C)c3ccc(-c4ccc(F)cc4CNC(=O)CO)s3)c2cc1OC (stereo not drawn) [Example 382, N-[2-(5-{1-[(6,7-dimethoxy-2-methylquinazolin-4-yl)amino]ethyl}thiophen-2-yl)-5-fluorobenzyl]-2-hydroxyacetamide] was tested, and the IC50 [1] was 0.748 µM and the IC50 ([2]; in μM) was over 20 µM.

COCC(=O)NCc1cc(F)ccc1-c1ccc(C(C)Nc2nc(C)nc3cc(OC)c(OC)cc23)s1 (stereo not drawn) [Example 383, N-[2-(5-{1-[(6,7-dimethoxy-2-methylquinazolin-4-yl)amino]ethyl}thiophen-2-yl)-5-fluorobenzyl]-2-methoxyacetamide] showed an IC50 [1] of 5.11 µM and an IC50 ([2]; in μM) of over 20 µM.

COc1cc2nc(C)nc(NC(C)c3ccc(-c4cc(Cl)ccc4CNC(=O)OC(C)(C)C)s3)c2cc1OC (stereo not drawn) [Example 387, tert-butyl [4-chloro-2-(5-{1-[(6,7-dimethoxy-2-methylquinazolin-4-yl)amino]ethyl}-thiophen-2-yl)benzyl]carbamate] gave an IC50 [1] of 8.32 µM and an IC50 [2, 3] of over 20 µM.

COc1cc2nc(C)nc(N[C@H](C)c3cccc(-c4ccnc(O)c4)c3)c2cc1OC [Example 388, 4-(3-{(1R)-1-[(6,7-dimethoxy-2-methylquinazolin-4-yl)amino]ethyl}phenyl)pyridin-2-ol] gave an IC50 [1] of 0.757 µM and an IC50 [2, 3] of over 20 µM.

For COc1cc2nc(C)nc(NC(C)c3cccc(OCc4ccccc4)c3)c2cc1OC (stereo not drawn) [Example 389, N-{1-[3-(benzyloxy)phenyl]ethyl}-6,7-dimethoxy-2-methylquinazolin-4-amine], the IC50 [1] was 16.9 µM and the IC50 [2, 3] was over 20 µM.

Cc1nc(N[C@H](C)c2cccc(Cl)c2)c2cc(C(C)(C)O)ccc2n1 [Example 392, 2-(4-{[(1R)-1-(3-chlorophenyl)ethyl]amino}-2-methylquinazolin-6-yl)propan-2-ol] showed an IC50 [1] of 1.52 µM and an IC50 [2, 3] of over 20 µM.

For COc1cc2nc(C)nc(N[C@H](C)c3cccc(-c4ccccc4CC(N)=O)c3)c2cc1OC [Example 393, 2-(3′-{(1R)-1-[(6,7-dimethoxy-2-methylquinazolin-4-yl)amno]ethyl}biphenyl-2-yl)acetamide], the IC50 [1] was 1.04 µM and the IC50 [2, 3] was over 20 µM.

COc1cc2nc(C)nc(NC(C)c3ccc(-c4ccccc4CC(N)=O)s3)c2cc1OC (stereo not drawn) [Example 394, 2-[2-(5-{1-[(6,7-dimethoxy-2-methylquinazolin-4-yl)amino]ethyl}thiophen-2-yl)phenyl]acetamide] showed an IC50 [1] of 2.29 µM and an IC50 [2, 3] of over 20 µM.

COc1cc2nc(C)nc(NC(C)c3ccc(-c4ccc(O)nc4)s3)c2cc1OC (stereo not drawn) [Example 395, 5-(5-{1-[(6,7-dimethoxy-2-methylquinazolin-4-yl)amino]ethyl}thiophen-2-yl)pyridin-2-ol] was tested, and the IC50 [1] was 1.02 µM and the IC50 [2, 3] was 7.07 µM.

COc1cc(C)c2nc(C)nc(N[C@H](C)c3cccc(Cl)c3)c2c1 [Example 396, N-[(1R)-1-(3-chlorophenyl)ethyl]-6-methoxy-2,8-dimethylquinazolin-4-amine] showed an IC50 [1] of 3.13 µM and an IC50 [2, 3] of over 20 µM.

COc1cc2nc(C)nc(NC(C)c3ccc(-c4cccc(Cl)c4CN)s3)c2cc1OC (stereo not drawn) [Example 397, N-[1-{5-[2-(aminomethyl)-3-chlorophenyl]thiophen-2-yl}ethyl]-6,7-dimethoxy-2-methylquinazolin-4-amine] was tested, and the IC50 [1] was 0.249 µM and the IC50 [2, 3] was over 20 µM.

Molecule COc1cc2nc(C)nc(NC(C)c3ccc(-c4ccc(Cl)cc4CN)s3)c2cc1OC (stereo not drawn) [Example 398, N-[1-{5-[2-(aminomethyl)-4-chlorophenyl]thiophen-2-yl}ethyl]-6,7-dimethoxy-2-methylquinazolin-4-amine] has an IC50 [1] of 0.0721 µM and an IC50 [2, 3] of over 20 µM.

Work on COc1cc2nc(C)nc(NC(C)c3cc(C)c(-c4ccc(F)cc4CN)s3)c2cc1OC (stereo not drawn) [Example 399, N-(1-{5-[2-(aminomethyl)-4-fluorophenyl]-4-methyl-2-thienyl}ethyl)-6,7-dimethoxy-2-methylquinazolin-4-amine] yielded an IC50 [1] of 0.296 µM and an IC50 [2, 3] of over 20 µM.

COc1cc2nc(C)nc(NC(C)c3cc(C)c(-c4ccccc4CN(C)C)s3)c2cc1OC (stereo not drawn) [Example 400, N-[1-(5-{2-[(dimethylamino)methyl]phenyl}-4-methyl-2-thienyl)ethyl]-6,7-dimethoxy-2-methylquinazolin-4-amine] was tested, and the IC50 [1] was 0.0766 µM and the IC50 [2, 3] was over 20 µM.
